In patent publication US11464745B2, “Solid pharmaceutical dosage formulations and processes” (UCL Business PLC, priority 2016, dated 2022):

Assays:
[1] = Determination of drug loading by HPLC (drug degradation during SLS printing); assay type: physicochemical; settings: SLS 3D printing, 445 nm 2.3 W laser
Protocol: Tablets weighing approx. 300 mg, prepared as in example 1, were placed in a volumetric flask with deionized water (1 L) under magnetic stirring until complete dissolution.
Samples of the solutions were then filtered through 0.45 μm filters (Millipore Ltd, Ireland) and the concentration of drug determined with high performance liquid chromatograph (HPLC). We used a Hewlett Packard 1050 Series HPLC system, Agilent Technologies, UK. The validated high performance liquid chromatographic assay entailed injecting 20 μL samples for analysis using a mobile phase, consisting of gradient system of (A) water adjusted to pH 2 with orthophosphoric acid and (B) acetonitrile, through a Luna 5 μm C18 column, 150×4.6 mm (Phenomenex, UK) maintained at 40° C. The mobile phase was pumped at a flow rate of 1 mL/min under the following gradient program: 0-15 min, 5-20% B; 15-16 min, 20-5% B.
HPLC drug loading studies have been performed. […] (Goyanes et al. 3D printing of modified-release aminosalicylate (4-ASA and 5-ASA) tablets. Eur. J. Pharm. Biopharm. 89, 157-162).

[2] = FDM printing; cited from earlier work

Nc1ccc(C(=O)O)c(O)c1 [4-ASA]
drug degradation during the printing process (HPLC) [1]: No degradation | drug degradation while printing [2]: degrade
